The values below come from US5242915A, “Formulation useful for the inhibition of massive release of cerebral glutamate” (Shionogi & Co., Ltd., priority 1991, dated 1993).

Data set [1] concerns massive release of cerebral glutamate in hippocampal CAI region. Description: Effect on the ischemic release of glutamate in hippocampal CAI region (BCAO, microdialysis). It counts as in vivo, rat (SHRSP, stroke-prone spontaneously Hypertensive Rats). The note with it: intraduodenal, 40 min before BCAO, S-312-d 0.3 mg/kg; for inhibition of the massive release of glutamate during BCAO: nilvadipine 3 mg/kg, nimodipine 3 mg/kg, FIG. 2. From the text: Thus, an experimental cerebral ischemia was caused in SHRSPs by the occlusion of both common carotid arteries (hereinafter, referred to as BCAO). During the ischemic period, a massive release of glutamate in hippocampal CAI region was observed (see, FIG. 1).
Reference compound: nilvadipine, and nimodipine Animal: Five male SHRSP bred at the Aburahi Laboratories (Shionogi) at ten to twelve weeks of age were used in a group. Animals were fed CA-1 (Nihon Clea) and tap water ad libitum.
Hippocampus CAI region was made ischemia by the occlusion of both common carotid arteries (BCAO) into rats as follows:
Rats were anesthetized with halothane (3%) and the cervical region proximal to abdomen was incised to expose the common carotid arteries. Both arteries were occluded with nylon threads with each end exposed at the back of the neck through either of two holes of a tube (double lumen PE tube, Natsume Seisakusho, & Co.). Occlusion was induced in the both common carotid arteries by pulling strongly each exposed end of threads. BCAO was stopped by gradually pulling down the each end of threads passed under arteries proximal to abdomen. During the ischemic period, the halothane inhalation was stopped.
The determination of the regional cerebral blood flow was conducted using a laser doppler tissue flow meter (LFA-2, Biomedical Science, Japan) with a needle-type sensor (450 μm in diameter) inserted into the hippocampal CA1 region opposite to the site where a microdialysis probe had been fixed. The blood flow during BCAO was estimated as almost negligible on the assumption that the blood flow after the death of rat is "0".
S-312-d (0.3 mg/kg), nilvadipine (3 mg/kg), or nimodipine (3 mg/kg) was dissolved into polyethylene glycol 400 and administered into duodenum in each rat at 40 min before BCAO.
Under the anesthesia with halothane (1-2%), rats were fixed on cerebral stereotaxic frame and equipped with an artificial respirator (1 cc/100 gbw×60 times/min), while being maintained at 37 ° C by settling a heating pad beneath the lower abdominal region. A hole was drilled on the exposed skull and a microdialysis probe (CMA/10, membrane length 2 mm, BAS, Sweden) was inserted gently. Measurement was started after 3 hr from the surgery in order to avoid the influence of tissue damage. The probe was perfused with Ringer's solution at a flow rate of 2 μl/min by a microdialysis pump (CMA/100, BAS, Sweden). The dialysates were collected for each 5-min perfusion and pooled. Sampling was started at 10 min before the BCAO. BCAO was continued for 20 min when it was stopped by loosening […] threads to allow cerebral circulation. The sampling was continued for 20 min after the discontinuation of the BCAO. Samples were then subjected to quantitative analysis for glutamate without further treatments.
The concentration of glutamate was determined by HPLC substantial in accordance with the HPLC-ECD method of Donzanti et al. (Life Sci. 43: 913 (1988)) The glutamate-containing sample was reacted with o-phthlaldehyde/β-mercaptoethanol solution for 2 min and injected into a reverse-phase column and eluted under the following conditions. The eluate was then analyzed for the presence of glutamate by an electrochemical measurement of oxidation-reduction current.
Column: C 18, particle size: 3 μm, 8 cm×4.6 mm
Mobile phase: a mixture of 0.1M phosphate buffer (pH 6.4), 0.13 mM Na2 EDTA, and 22% MeOH

In data set [2] the test system is cerebral release of glutamate. The note with it: comparison, no data shown, cited from earlier work.
The next data set relates to DBA/2 Mouse. Kind of data set: Ultrasonically (sound)-induced convulsion in DBA/2 mouse. The class given is in vivo, mouse (DBA/2). The note with it: for ED50: Mus musculus, one hour before ultrasonic treatment (70-90 db, 1 min), probit method, read-out: ED50 (anti-convulsant effect); for anti-convulsant effect, in words: sound/ultrasonically induced convulsion; for anticonvulsive effect (general statement): FIG. 3 and Table 1. From the text: Animal: Ten mice consisting of five each of male and female DBA/2 mice (weighing from 7 to 11 g) bred at the Aburahi Laboratories (Shionogi) at three weeks of age were used in a group.
One hour before the ultrasonic treatment, each mouse of test group orally received S-312-d as a solution in polyethylene glycol 400. To each mouse of control groups was orally administered either of Nicardipine, as a solution in polyethylene glycol 400, S-312-1, Nimodipine or Flunarizine, as a suspension in gum arabic. Convulsion was induced in mouse by an ultrasonic treatment (70-90 db, 1 min) and the number of tetanic death was observed. ED50 value of anti-convulsant effect of each compound was calculated by probit method using the […] as an indication.

The conditions of data set [3]: cited from earlier work; for antihypertensive, peripheral, cerebral and coronary vasodilating actions: background statement.
The next data set concerns vascular smooth muscle. The note with it: background statement; cited from earlier work.
The conditions of data set [4]: NMDA channel antagonist; cited from earlier work.
Data set [5] relates to pyramidal neurons of the hippocampal CAI region. Kind of data set: Delayed neuronal death during cerebral ischemia (density of living pyramidal neurons). The note with it: for Density of Neurons, animals with 40-80 n/mm / Density of Neurons, animals with 80-120 n/mm / Density of Neurons, animals with <40 n/mm / Density of Neurons, animals with >120 n/mm: 7th day; for Density of Neurons, mean ± S.E.M: normal 160 ± 9, control 69 ± 10. It counts as in vivo, rat (SHRSP). The protocol: Animal: eight to twelve (n=8-12) male SHRSP bred at the Aburahi Laboratories (Shionogi) were used in a group. Animals were fed CA-1 (Nihon Clea) and tap water ad libitum.
S-312-d was dissolved into polyethylene glycol 400 solution and intraperitoneally administered to a SHRSP at 60 min before the introduction of a global cerebral ischemia. Cerebral ischemia was then caused in each rat for 20 min and stopped to allow cerebral circulation in the same manner as the above Experiment 1. For the histological observation on the delayed neuronal death, a fixation of tissue was conducted by perfusing the animal from the left ventricle using 4% paraformaldehyde at a flow rate of 10 ml/min by means of perista pump (AC-2110, ATTA) on the 7th day from the ischemia. After the removal of brain, cerebral region containing hippocampus was embedded in paraffin, from which sliced preparations of 4 μm thick were prepared. Each cerebral preparation was stained with hematoxylin-eosin and the density of the living pyramidal neurons (n/mm) was determined by counting the number of neurons per 1 mm length of the hippocampal CAI region under a light microscope. The data were expressed as the mean ±S.E.M. For the purpose of comparison, SHRSPs with or without ischemic maneuvering were both treated with propylene glycol, in exactly the same manner as the above.

Setting [6] is: oral, one hour before ultrasonic treatment.
Where [7] appears, read: treated group (I), 0.01 mg/kg i.p. 60 min before ischemia (20 min), n = 12.
The mark [8] stands for this setting: treated group (II), 0.1 mg/kg i.p. 60 min before ischemia (20 min), n = 13.

“Also recorded” adds a separate entry of the source. Like-named read-outs stand apart in the source and are kept apart here.

`COC(=O)C1=C(C#N)NC(C)=C(C(=O)OC(C)C)C1c1cccc([N+](=O)[O-])c1` (stereo not shown) [nilvadipine, reference compound]: in data set [1], the “inhibition of the massive release of glutamate during BCAO” value (“inhibition” below) is “only S-312-d was significantly effective; also recorded: neither nilvadipine nor nimodipine shows significant effect”.
Consider `NCC(CC(=O)O)c1ccc(Cl)cc1` (stereo not shown) [Baclofen], for which the “effect on ischemic release of glutamate” value in data set [2] is recorded as “not the ischemic release”. Besides, the “effect on normal release of glutamate” value in data set [2] is “inhibit the normal glutamate release”; in data set [2] (listed as baclofen), “inhibits the normal release”.
For orientation: ED50 means the dose that gives a 50% effect, or the effect in half of the subjects. As for `Fc1ccc(C(c2ccc(F)cc2)N2CCN(C/C=C/c3ccccc3)CC2)cc1` [Flunarizine], the ED50 in the data set with DBA/2 Mouse (oral) is 48.1 mg/kg. In the data set on DBA/2 Mouse, the “anti-convulsant effect, in words” value was “dose-dependent anti-convulsant effect”.
Turning to `COC(=O)C1=C(C)NC(C)=C(C(=O)OCCN(C)Cc2ccccc2)C1c1cccc([N+](=O)[O-])c1` (stereo not shown) [Nicardipine], in the data set with DBA/2 Mouse (setting [6]), the “Anticonvulsive effect (maximum), at 20-80 mg/kg” value is on record as 30% and the “anticonvulsive effect (general statement)” value is “less than 40%”.
For the molecule `COC(=O)C1=C(C)Nc2scc(CC(C)C)c2[C@@H]1c1cccc([N+](=O)[O-])c1` [S-312-1, methyl (-)-(4R)-4,7-dihydro-3-isobutyl-6-methyl-4-(3-nitrophenyl)thieno[2,3-b]pyridine-5-carboxylate], in the data set on DBA/2 Mouse (oral, 10-80 mg/kg, one hour before ultrasonic treatment), the “Anticonvulsive effect (maximum), at 10-80 mg/kg” value stood at 30%. Further, the “anticonvulsive effect (general statement)” value with DBA/2 Mouse (setting [6]) is “less than 40%”.
As for `COCCOC(=O)C1=C(C)NC(C)=C(C(=O)OC(C)C)C1c1cccc([N+](=O)[O-])c1` (stereo not shown) [Nimodipine, reference compound], in the data set with DBA/2 Mouse (setting [6]), the “Anticonvulsive effect (maximum), at 20-80 mg/kg” value came out at 40% and the “anticonvulsive effect (general statement)” value is “less than 40%”. In addition, the “inhibition” value in data set [1] was “only S-312-d was significantly effective; also recorded: neither nilvadipine nor nimodipine shows significant effect”.
As to `COC(=O)C1=C(C)Nc2scc(CC(C)C)c2C1c1cccc([N+](=O)[O-])c1` (racemic) [S-312, methyl 4,7-dihydro-3-isobutyl-6-methyl-4-(3-nitrophenyl)thieno[2,3-b]pyridine-5-carboxylate], in data set [3] (U.S. Pat. No. 4,703,051), the adverse reactions entry is “lesser adverse reactions”; the “vasodilating, antihypertensive and coronary vasodilating effect” value was “potent antihypertensive and coronary vasodilating effect”. Besides, the “antihypertensive, peripheral, cerebral and coronary vasodilating actions” value in data set [3] is “exhibit antihypertensive activity, as well as peripheral, cerebral, and coronary vasodilating actions”. Also, the “Ca-blocking effect on vascular smooth muscle” value in the data set on vascular smooth muscle is “selective Ca-blocking effect on vascular smooth muscle”.
As for `C[C@]12N[C@H](Cc3ccccc31)c1ccccc12` [MK-801], in data set [4], the “toxic effects / clinical applicability” value is reported as “not clinically applicable because of serious toxic effects”.
As for `COC(=O)C1=C(C)Nc2scc(CC(C)C)c2[C@H]1c1cccc([N+](=O)[O-])c1` [S-312-d, methyl (+)-(4S)-4,7-dihydro-3-isobutyl-6-methyl-4-(3-nitrophenyl)thieno[2,3-b]pyridine-5-carboxylate], the ED50 in the data set with DBA/2 Mouse (oral) stood at 17.6 mg/kg. Also, the “anti-convulsant effect, in words” value in the data set with DBA/2 Mouse is “inhibits sound-induced convulsion in DBA/2 mouse; also recorded: dose-dependent anti-convulsant effect; also recorded: potent inhibitory effect on a convulsion induced by sound stimulation in DBA/2 mice”; in the data set on DBA/2 Mouse (listed as S-312-2), “inhibit the both of a) the sound-induced convulsion”. Also, in data set [1], the “effect on the normal resting release of glutamate” value was “not the normal resting release; also recorded: without affecting the normal resting release of glutamate; also recorded: not the normal cerebral release of glutamate”. The entries for the “inhibition” value in data set [1] and in data set [1] (listed as S-312-2) were “only S-312-d was significantly effective; also recorded: inhibited the massive release of glutamate during BCAO; also recorded: inhibits specifically the massive release of glutamate during cerebral ischemia; also recorded: inhibiting specifically a massive release of cerebral glutamate from hippocampus” and “the massive release of cerebral glutamate”, respectively. The “antihypertensive, peripheral, cerebral and coronary vasodilating actions” value in data set [3] was “exhibit antihypertensive activity, as well as peripheral, cerebral, and coronary vasodilating actions”. The “protection of cerebral neurons against ischemic necrosis” value in data set [5] (pretreatment i.p., Table 2) is reported as “significantly effective for the protection of cerebral neurons against ischemic necrosis of cells”. The “Density of Neurons, animals with 40-80 n/mm” value in data set [5] (setting [7]) came out at 4; in data set [5] (setting [8]), 1. Moreover, the “Density of Neurons, animals with 80-120 n/mm” value came to 2 in data set [5] (setting [7]) and 4 in data set [5] (setting [8]). Further, the “Density of Neurons, animals with <40 n/mm” value in data set [5] (setting [7]) is on record as 3; in data set [5] (setting [8]), 2. Moreover, the results for the “Density of Neurons, animals with >120 n/mm” value in data set [5] (setting [7]) and in data set [5] (setting [8]) were 3 and 6, respectively. In addition, the “Density of Neurons, mean ± S.E.M” value in data set [5] (treated group (I), 0.01 mg/kg i.p., n = 12, p < 0.01 vs normal group) is on record as 73 ± 12 n/mm; in data set [5] (treated group (II), 0.1 mg/kg i.p., n = 13, p < 0.01 vs control group) it was 114 ± 17 n/mm. Besides, the “Ca-blocking effect on vascular smooth muscle” value in the data set with vascular smooth muscle was “selective Ca-blocking effect on vascular smooth muscle”.
